What was measured:
[1] = biological target: PI3-kinase p110-alpha/p85-alpha (Homo sapiens) (UniProt P27986+P42336); assay: Inhibition of PIK3CA/PIK3R1 (unknown origin) at 1 uM by single point assay; type: protein-complex assay
[2] = biological target: T1, Mitogen-activated protein kinase kinase kinase 7 (Homo sapiens) (UniProt O43318); assay: Inhibition of MAP3K7 (unknown origin) at 1 uM by single point assay
T1 sequence (whole entry): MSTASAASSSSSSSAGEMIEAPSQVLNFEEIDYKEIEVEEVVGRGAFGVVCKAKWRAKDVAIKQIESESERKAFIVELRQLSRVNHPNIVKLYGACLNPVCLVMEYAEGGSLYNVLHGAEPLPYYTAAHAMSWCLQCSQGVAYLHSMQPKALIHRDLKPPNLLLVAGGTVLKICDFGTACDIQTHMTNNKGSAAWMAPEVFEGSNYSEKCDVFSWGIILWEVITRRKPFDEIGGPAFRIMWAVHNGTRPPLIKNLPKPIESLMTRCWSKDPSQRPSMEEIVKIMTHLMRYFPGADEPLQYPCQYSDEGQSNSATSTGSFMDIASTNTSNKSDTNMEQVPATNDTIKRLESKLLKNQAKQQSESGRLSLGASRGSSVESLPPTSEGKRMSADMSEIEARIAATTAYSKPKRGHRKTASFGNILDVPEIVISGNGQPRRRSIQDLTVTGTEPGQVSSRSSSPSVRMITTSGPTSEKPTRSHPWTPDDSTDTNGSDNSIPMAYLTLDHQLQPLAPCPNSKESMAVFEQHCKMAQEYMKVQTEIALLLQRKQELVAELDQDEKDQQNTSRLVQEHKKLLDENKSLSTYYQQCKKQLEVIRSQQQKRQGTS

[3] = biological target: Receptor-type tyrosine-protein kinase FLT3 (Homo sapiens) (UniProt P36888); assay: Inhibition of FLT3 (unknown origin) at 1 uM by single point assay
[4] = biological target: Dual specificity tyrosine-phosphorylation-regulated kinase 1B (Homo sapiens) (UniProt Q9Y463); assay: Inhibition of DYRK1B (unknown origin) at 1 uM by single point assay
[5] = biological target: Serine/threonine-protein kinase PLK3 (Homo sapiens) (UniProt Q9H4B4); assay: Inhibition of PLK3 (unknown origin) at 1 uM by single point assay
[6] = biological target: Leucine-rich repeat serine/threonine-protein kinase 2 (Homo sapiens, UniProt Q5S007); assay: Inhibition of LRRK2 (unknown origin) at 1 uM by single point assay
[7] = biological target: Serine/threonine-protein kinase PLK2 (Homo sapiens) (UniProt Q9NYY3); assay: Inhibition of PLK2 (unknown origin) at 1 uM by single point assay
[8] = biological target: Serine/threonine-protein kinase PAK 4 (Homo sapiens) (UniProt O96013); assay: Inhibition of PAK4 (unknown origin) at 1 uM by single point assay
[9] = biological target: T2, Serine/threonine-protein kinase 3 (Homo sapiens) (UniProt Q13188); assay: Inhibition of STK3 (unknown origin) at 1 uM by single point assay
T2 sequence (whole entry): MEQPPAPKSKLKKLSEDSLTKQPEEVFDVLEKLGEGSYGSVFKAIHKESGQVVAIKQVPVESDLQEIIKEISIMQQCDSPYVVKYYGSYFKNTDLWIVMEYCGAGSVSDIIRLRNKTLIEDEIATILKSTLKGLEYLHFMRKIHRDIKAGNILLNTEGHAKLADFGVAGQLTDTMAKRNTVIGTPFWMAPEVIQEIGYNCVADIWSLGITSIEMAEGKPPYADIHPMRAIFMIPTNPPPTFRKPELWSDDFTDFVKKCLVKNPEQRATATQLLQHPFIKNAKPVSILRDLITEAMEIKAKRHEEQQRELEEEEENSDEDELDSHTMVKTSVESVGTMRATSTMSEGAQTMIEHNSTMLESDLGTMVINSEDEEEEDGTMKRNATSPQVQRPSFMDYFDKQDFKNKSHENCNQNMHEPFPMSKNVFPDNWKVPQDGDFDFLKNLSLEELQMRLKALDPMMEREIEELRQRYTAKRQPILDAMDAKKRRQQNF

[10] = biological target: cAMP-dependent protein kinase catalytic subunit alpha (Homo sapiens) (UniProt P17612); assay: Inhibition of PRKACA (unknown origin) at 1 uM by single point assay
[11] = biological target: Tyrosine-protein kinase SYK (Homo sapiens) (UniProt P43405); assay: Inhibition of SYK (unknown origin) at 1 uM by single point assay
[12] = biological target: Protein kinase C beta type (Homo sapiens) (UniProt P05771); assay: Inhibition of PKCbeta1 (unknown origin) at 1 uM by single point assay
[13] = biological target: Platelet-derived growth factor receptor alpha (Homo sapiens) (UniProt P16234); assay: Inhibition of PDGFRalpha (unknown origin) at 1 uM by single point assay
[14] = biological target: Serine/threonine-protein kinase MARK2 (Homo sapiens) (UniProt Q7KZI7); assay: Inhibition of MARK2 (unknown origin) at 1 uM by single point assay
[15] = biological target: Tyrosine-protein kinase ABL1 (Homo sapiens) (UniProt P00519); assay: Inhibition of ABL1 (unknown origin) at 1 uM by single point assay
[16] = biological target: Serine/threonine-protein kinase 16 (Homo sapiens) (UniProt O75716); assay: Inhibition of STK16 (unknown origin) at 1 uM by single point assay
[17] = biological target: Calcium/calmodulin-dependent protein kinase type II subunit alpha (Homo sapiens) (UniProt Q9UQM7); assay: Inhibition of CAMK2alpha (unknown origin) at 1 uM by single point assay
[18] = biological target: T3, Serine/threonine-protein kinase Chk1 (Homo sapiens) (UniProt O14757); assay: Inhibition of CHK1 (unknown origin) at 1 uM by single point assay
T3 sequence (whole entry): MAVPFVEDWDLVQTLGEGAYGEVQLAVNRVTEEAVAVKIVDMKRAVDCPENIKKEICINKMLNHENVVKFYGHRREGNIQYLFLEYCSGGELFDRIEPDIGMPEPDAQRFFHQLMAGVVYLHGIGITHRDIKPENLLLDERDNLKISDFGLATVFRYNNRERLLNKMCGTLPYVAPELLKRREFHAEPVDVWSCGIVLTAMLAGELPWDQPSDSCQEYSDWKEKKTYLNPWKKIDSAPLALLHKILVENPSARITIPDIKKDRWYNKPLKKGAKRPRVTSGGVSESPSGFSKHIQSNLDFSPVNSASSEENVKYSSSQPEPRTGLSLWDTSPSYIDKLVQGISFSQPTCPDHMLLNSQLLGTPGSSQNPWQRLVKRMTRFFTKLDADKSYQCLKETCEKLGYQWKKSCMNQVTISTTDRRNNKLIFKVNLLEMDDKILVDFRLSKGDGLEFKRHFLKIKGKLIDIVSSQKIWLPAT

[19] = biological target: RAF proto-oncogene serine/threonine-protein kinase (Homo sapiens) (UniProt P04049); assay: Inhibition of RAF1 (unknown origin) at 1 uM by single point assay
[20] = biological target: RAC-alpha serine/threonine-protein kinase (Homo sapiens) (UniProt P31749); assay: Inhibition of AKT1 (unknown origin) at 1 uM by single point assay

Sequence of Serine/threonine-protein kinase PAK 4 (Homo sapiens) (O96013 whole entry, looked up): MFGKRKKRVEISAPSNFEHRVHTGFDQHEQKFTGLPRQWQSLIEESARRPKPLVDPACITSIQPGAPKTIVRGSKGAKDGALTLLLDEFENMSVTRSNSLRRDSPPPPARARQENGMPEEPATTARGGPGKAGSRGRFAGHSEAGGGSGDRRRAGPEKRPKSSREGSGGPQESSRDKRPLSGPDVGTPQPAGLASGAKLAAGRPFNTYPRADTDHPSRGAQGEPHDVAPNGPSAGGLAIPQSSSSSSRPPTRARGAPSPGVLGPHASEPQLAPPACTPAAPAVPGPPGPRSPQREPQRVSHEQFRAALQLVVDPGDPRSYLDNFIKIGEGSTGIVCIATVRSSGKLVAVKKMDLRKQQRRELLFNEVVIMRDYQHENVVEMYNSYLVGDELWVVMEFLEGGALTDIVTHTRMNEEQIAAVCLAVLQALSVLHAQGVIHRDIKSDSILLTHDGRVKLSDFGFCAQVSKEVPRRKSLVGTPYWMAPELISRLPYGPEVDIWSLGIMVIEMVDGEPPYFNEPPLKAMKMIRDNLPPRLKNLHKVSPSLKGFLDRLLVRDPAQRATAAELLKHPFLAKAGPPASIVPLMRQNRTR
Sequence of Dual specificity tyrosine-phosphorylation-regulated kinase 1B (Homo sapiens) (Q9Y463 whole entry, looked up): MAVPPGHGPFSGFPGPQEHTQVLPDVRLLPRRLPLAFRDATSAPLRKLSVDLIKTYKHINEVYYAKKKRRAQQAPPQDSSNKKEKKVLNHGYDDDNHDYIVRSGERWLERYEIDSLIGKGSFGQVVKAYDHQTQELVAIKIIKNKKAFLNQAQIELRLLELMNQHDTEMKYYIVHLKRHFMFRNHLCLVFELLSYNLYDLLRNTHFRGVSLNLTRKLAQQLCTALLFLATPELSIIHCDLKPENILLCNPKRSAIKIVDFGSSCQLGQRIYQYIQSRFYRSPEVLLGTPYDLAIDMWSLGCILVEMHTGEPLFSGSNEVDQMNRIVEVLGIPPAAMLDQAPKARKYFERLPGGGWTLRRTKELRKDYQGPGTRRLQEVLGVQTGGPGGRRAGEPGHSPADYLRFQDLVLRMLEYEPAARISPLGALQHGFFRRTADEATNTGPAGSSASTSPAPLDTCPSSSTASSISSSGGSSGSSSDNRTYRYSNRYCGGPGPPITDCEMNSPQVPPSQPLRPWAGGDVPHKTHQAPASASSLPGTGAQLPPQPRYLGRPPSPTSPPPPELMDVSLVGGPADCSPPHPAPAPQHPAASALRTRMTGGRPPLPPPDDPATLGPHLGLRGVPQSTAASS
Sequence of RAF proto-oncogene serine/threonine-protein kinase (Homo sapiens) (P04049 whole entry): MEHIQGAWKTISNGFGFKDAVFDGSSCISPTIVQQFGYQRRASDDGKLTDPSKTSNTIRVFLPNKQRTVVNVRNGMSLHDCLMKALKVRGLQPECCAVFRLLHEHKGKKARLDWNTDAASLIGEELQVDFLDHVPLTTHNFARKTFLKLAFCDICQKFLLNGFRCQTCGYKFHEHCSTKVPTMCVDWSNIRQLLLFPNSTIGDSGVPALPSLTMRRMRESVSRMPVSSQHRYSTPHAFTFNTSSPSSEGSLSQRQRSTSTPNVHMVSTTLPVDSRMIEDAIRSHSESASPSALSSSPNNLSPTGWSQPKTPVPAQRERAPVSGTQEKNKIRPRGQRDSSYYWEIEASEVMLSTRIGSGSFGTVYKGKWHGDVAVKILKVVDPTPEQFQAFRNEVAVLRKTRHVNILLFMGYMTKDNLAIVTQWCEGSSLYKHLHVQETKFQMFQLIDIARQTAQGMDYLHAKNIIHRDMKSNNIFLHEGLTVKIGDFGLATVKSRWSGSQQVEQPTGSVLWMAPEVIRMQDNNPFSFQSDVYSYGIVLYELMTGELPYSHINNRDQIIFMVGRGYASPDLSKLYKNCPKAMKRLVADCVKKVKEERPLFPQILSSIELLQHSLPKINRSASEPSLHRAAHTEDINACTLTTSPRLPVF
Sequence of Leucine-rich repeat serine/threonine-protein kinase 2 (Q5S007 whole entry): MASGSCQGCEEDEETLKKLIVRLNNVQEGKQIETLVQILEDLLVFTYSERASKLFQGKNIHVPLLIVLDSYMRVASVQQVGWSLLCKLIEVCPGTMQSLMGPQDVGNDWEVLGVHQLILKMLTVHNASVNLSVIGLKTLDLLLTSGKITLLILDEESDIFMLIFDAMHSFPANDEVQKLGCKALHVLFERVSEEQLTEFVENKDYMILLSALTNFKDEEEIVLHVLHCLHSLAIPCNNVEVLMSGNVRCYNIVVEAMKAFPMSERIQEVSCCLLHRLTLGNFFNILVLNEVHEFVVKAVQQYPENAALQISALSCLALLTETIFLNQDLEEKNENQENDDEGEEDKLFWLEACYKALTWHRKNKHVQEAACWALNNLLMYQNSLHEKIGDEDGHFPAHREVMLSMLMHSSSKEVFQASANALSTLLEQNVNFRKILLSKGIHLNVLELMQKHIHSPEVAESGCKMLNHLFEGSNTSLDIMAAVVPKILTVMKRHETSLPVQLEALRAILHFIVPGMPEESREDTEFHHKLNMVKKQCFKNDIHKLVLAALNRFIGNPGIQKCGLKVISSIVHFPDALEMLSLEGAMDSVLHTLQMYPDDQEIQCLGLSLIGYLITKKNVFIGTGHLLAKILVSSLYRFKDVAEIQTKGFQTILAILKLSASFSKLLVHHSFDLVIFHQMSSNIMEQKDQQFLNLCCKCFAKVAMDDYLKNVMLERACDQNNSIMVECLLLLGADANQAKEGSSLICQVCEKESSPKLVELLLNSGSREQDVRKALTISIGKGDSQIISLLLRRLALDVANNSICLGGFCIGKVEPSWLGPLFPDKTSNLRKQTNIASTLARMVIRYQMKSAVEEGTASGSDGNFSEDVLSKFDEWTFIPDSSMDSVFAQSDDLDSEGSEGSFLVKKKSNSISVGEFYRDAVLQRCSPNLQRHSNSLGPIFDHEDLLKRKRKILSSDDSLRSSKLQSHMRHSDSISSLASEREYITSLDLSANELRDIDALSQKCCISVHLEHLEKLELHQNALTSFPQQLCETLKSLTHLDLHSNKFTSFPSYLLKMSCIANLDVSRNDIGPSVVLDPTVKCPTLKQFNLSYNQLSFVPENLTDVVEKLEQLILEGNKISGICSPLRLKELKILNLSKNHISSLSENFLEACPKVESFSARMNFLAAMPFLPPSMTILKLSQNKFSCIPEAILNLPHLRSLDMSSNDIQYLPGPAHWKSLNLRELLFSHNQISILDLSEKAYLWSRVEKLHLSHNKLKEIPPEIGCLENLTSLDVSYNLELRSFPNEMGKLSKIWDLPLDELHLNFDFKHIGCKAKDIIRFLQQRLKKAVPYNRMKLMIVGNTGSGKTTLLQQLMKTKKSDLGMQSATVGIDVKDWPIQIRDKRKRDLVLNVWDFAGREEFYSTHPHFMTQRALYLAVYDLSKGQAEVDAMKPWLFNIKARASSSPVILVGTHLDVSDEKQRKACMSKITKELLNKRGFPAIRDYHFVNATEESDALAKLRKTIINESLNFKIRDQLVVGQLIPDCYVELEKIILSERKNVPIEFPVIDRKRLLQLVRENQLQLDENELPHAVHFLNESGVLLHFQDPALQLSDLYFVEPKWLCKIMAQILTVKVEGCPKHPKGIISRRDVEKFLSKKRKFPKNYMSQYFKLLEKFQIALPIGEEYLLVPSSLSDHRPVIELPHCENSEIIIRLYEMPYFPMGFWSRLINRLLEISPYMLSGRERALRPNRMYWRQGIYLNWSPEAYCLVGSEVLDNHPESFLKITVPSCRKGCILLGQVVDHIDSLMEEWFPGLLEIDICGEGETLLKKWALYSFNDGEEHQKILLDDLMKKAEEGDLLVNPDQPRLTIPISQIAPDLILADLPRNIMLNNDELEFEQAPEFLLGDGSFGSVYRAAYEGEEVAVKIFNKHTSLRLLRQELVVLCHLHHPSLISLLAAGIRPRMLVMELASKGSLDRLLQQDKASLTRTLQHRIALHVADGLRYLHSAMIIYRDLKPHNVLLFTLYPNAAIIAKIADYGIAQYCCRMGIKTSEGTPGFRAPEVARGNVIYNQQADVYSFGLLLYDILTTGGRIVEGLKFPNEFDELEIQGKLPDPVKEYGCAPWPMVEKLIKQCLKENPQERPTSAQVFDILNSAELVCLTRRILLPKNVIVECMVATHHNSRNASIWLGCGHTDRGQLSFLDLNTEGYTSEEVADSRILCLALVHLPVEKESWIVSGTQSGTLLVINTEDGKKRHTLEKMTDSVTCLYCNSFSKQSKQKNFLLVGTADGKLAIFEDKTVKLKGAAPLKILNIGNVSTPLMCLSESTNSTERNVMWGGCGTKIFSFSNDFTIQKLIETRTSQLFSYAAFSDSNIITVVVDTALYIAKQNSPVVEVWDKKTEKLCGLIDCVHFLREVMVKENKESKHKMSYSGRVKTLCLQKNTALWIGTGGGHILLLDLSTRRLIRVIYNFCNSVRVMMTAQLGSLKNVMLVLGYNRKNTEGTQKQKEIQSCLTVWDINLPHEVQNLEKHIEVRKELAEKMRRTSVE
Sequence of Calcium/calmodulin-dependent protein kinase type II subunit alpha (Homo sapiens) (Q9UQM7 whole entry): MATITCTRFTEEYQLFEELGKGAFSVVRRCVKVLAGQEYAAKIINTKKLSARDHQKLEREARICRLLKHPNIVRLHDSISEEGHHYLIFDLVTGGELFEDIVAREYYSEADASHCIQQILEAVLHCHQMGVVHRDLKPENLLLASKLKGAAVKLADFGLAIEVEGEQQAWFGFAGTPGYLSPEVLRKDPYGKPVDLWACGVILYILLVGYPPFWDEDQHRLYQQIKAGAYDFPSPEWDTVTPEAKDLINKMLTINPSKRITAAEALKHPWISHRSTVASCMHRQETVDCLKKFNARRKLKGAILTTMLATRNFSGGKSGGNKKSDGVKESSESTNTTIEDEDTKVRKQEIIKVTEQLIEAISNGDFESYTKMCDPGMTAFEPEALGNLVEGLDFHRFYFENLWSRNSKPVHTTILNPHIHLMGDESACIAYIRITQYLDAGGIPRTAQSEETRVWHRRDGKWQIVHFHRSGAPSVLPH

inhibition [1]	inhibition [2]	inhibition [3]	inhibition [4]	inhibition [5]	inhibition [6]	inhibition [7]	inhibition [8]	inhibition [9]	inhibition [10]	inhibition [11]	inhibition [12]	inhibition [13]	inhibition [14]	inhibition [15]	inhibition [16]	inhibition [17]	inhibition [18]	inhibition [19]	inhibition [20]	Structure (SMILES)
22%	51%	84%	49%	12%	96%	89%	41%	15%	9%	92%	-7%	30%	64%	55%	10%	27%	64%	12%	0%	CC(C)Nc1c(C#N)cnc2cc(-c3cnn(C)c3)ccc12
-2%	7%	16%	49%	13%	82%	73%	15%	29%	9%	80%	19%	33%	52%	39%	3%	25%	36%	3%	10%	CC(C)Nc1c(C#N)cnc2cc(-c3ccc(S(C)(=O)=O)cc3)ccc12

— ChEMBL document CHEMBL2346515, “Discovery of 4-alkylamino-7-aryl-3-cyanoquinoline LRRK2 kinase inhibitors” (Bioorg Med Chem Lett, 2013)
